Results reported in patent publication US9643967B2, “Pyrrolo[3,2-c]pyridine derivatives as TLR inhibitors” (TAKEDA PHARMACEUTICAL COMPANY LIMITED, priority 2013, dated 2017).
Read-outs that look alike come from different tables or passages of the source.

Biological target: T1, mTLR9 (Mus musculus, UniProt Q9EQU3)
T1 construct: Splenocytes isolated from male C57/BL6 mice; from tissue; host or cells: splenocytes from the spleen of male C57BL/6 mice
T1 sequence (Q9EQU3 26-1032): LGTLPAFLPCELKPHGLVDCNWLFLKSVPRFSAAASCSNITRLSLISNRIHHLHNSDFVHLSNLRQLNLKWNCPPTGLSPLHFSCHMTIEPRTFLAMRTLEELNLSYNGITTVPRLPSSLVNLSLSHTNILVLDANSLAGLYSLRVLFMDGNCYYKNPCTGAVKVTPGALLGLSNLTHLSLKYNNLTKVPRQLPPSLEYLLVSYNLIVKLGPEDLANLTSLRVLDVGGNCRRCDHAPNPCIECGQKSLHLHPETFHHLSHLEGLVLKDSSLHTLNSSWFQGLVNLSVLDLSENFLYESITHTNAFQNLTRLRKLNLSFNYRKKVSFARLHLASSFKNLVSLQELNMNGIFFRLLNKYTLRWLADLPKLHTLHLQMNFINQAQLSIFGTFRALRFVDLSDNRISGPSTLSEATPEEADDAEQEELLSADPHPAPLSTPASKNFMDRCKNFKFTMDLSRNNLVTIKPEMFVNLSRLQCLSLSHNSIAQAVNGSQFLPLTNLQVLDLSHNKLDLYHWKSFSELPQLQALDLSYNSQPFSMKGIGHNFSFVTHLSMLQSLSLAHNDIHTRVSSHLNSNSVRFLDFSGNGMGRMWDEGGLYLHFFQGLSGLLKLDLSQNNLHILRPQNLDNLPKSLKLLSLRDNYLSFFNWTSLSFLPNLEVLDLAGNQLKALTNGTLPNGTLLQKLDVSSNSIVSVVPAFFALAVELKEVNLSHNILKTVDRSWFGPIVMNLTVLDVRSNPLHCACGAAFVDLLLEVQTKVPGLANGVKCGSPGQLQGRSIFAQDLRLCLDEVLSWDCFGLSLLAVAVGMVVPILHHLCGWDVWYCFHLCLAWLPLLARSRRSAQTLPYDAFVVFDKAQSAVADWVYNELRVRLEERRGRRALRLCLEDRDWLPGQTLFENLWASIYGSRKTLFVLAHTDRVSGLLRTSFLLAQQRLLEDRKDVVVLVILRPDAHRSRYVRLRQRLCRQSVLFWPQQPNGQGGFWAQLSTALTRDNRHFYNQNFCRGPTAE
Test: mTLR9 antagonism (IL-6 and TNF-α release assay) in mouse splenocytes, CpG ODN-2006 stimulated
Assay type: cell-based
Conditions: 1 μM, mouse splenocytes
From the text: mTLR9 and mTLR7 Antagonism (Cytokine Release Assay) in Mouse Splenocytes
TLR7 ligand R0006 (IDT, 5′-rU*rU*rG*rU*rU*rG*rU*rU*rG*rU*rU*rG*rU*rU*rG*rU*rU*rG*rU*rU-3′ (SEQ ID NO:1)), Liposomal transfection reagent—DOTAP (Roche, Cat. No. 11202375001), TLR9 ligand CpG ODN2006 (Sequence: T*C*G*T*C*G*T*T*T*T*G*T*C*G*T*T*T*T*G*T*C*G*T*T; *=phosphorothioate (SEQ ID NO:2)) DMSO (Sigma, D2650), RPMI Powder (Sigma, R6504), Fetal Bovine Serum (Gibco, 10270), Dulbecco's Phosphate Buffered Saline (Sigma, D1408), 96 well plate (Flat bottom, Costar 3599), ELISA kit for IL-6 (EBioscience, 88-7064-77 and TNFa (EBioscience, 88-7346-88), MACS Buffer (AutoMACS Rinsing Solution (Miltenyl Biotec, 130-091-222)+0.05% BSA), RBC lysis buffer (0.85% NH4Cl), 40 μm cell strainer (BD Falcon, 352340) Method: A. Isolation of Mouse Splenocytes
Mouse spleen was isolated from C57BL6 mouse and stored in 1× chilled PBS buffer until further processed. Spleen was transferred to a sterile petriplate and chopped in to 5-6 pieces in presence of MACS buffer (100 μl) with the help of fresh surgical blade and crushed with flat plunger of a sterile syringe. A uniform suspension was prepared by passing cells through a 40 μm cell strainer. Cells were centrifuged at 450×g for 5 minutes at 4° C., supernatant was discarded and pellet dislodged gently, resuspended in 2 ml of pre-warmed (37° C.) RBC lysis buffer at room temperature with continuous gentle mixing with 1 ml pipette. Lysis buffer was neutralized with 12 ml of chilled MACS buffer and cells were passed through 40 μm cell strainer. Cell suspension was collected in 15 ml MACS buffer and centrifuged at 450×g for 5 minutes at 4° C. Pellet was resuspended in 15 ml MACS buffer and centrifuged at 400×g for 5 minutes. Cells were resuspended in 10 ml of RPMI complete medium and viability was estimated by Trypan blue method.
mTLR9 Antagonism (IL-6 and TNF-α Release Assay):
500 μM stock of CpG ODN-2006 was prepared in sterile, endotoxin-free water. Dilutions of 10× concentrations of NCEs were prepared in incomplete RPMI media, maintaining a final DMSO concentration of 0.3%. NCEs were added in a concentration range of 30 μM to 1 nM in respective wells of assay plate, assay medium containing 0.3% DMSO were added to control wells. 0.2 million splenocytes were added to all the wells and incubated at 37° C. in 5% CO2 incubator for 30 minutes. 1 μg/ml of respective agonist was added to all the wells except those were assigned as negative controls and mixed thoroughly. Incomplete RPMI was added to negative control wells and incubated overnight at 37° C./5% CO2. The plate was centrifuged at 450×g for 5 minutes at room temperature and the supernatant was collected. ELISA was performed as per manufacturer's protocol. S/B Ratio, % Activity and % Inhibition was calculated using MS Excel. IC50 and inhibition curve was generated using Graph Pad Prism.

[1] = IL-6 release, read-out: mTLR9 inhibitory activity (% at 1 μM), IL-6
[2] = TNF-α release, read-out: mTLR9 inhibitory activity (% at 1 μM), TNF-α

Row | inhibition at 1 µM [1] | inhibition at 1 µM [2] | SMILES
1 | 100% | 91% | CC(C)N1CCN(c2ccc(-c3nccc4[nH]c(CN5CCC6(CC5)CC(O)C6)cc34)cc2)CC1 [Example A13, 7-[[4-[4-(4-isopropylpiperazin-1-yl)phenyl]-1H-pyrrolo[3,2-c]pyridin-2-yl]methyl]-7-azaspiro[3.5] nonan-2-ol]
2 | 100% | 100% | CC(C)N1CCN(c2ccc(-c3nccc4[nH]c(CN5CC(F)C5)cc34)cc2)CC1 [Example A16, 2-[(3-fluoroazetidin-1-yl)methyl]-4-[4-(4-isopropylpiperazin-1-yl)phenyl]-1H-pyrrolo[3,2-c]pyridine]
3 | 100% | 100% | CC(C)N1CCN(c2ccc(-c3nccc4[nH]c(CN5CCCCC5)cc34)cc2)CC1 [Example A17, 4-[4-(4-isopropylpiperazin-1-yl)phenyl]-2-(1-piperidylmethyl)-1H-pyrrolo[3,2-c]pyridine]
4 |  | 100% | CC(C)N1CCN(c2ccc(-c3nccc4[nH]c(CN5CCC(F)CC5)cc34)cc2)CC1 [Example A24, 2-[(4-fluoro-1-piperidyl)methyl]-4-[4-(4-isopropylpiperazin-yl)phenyl]-1H-pyrrolo[3,2-c] pyridine]
5 | 100% | 100% | CN1CCN(c2ccc(-c3nccc4[nH]c(CN5CCC(F)CC5)cc34)cc2)CC1 [Example A25, 2-[(4-fluoro-1-piperidyl)methyl]-4-[4-(4-methylpiperazin-1-yl)phenyl] - 1H-pyrrolo[3,2-c]pyridine]
6 | 100% | 100% | Cc1cc2[nH]c(Cn3cccn3)cc2c(-c2ccc(N3CCN(C(C)C)CC3)cc2)n1 [Example A28, 4-[4-(4-isopropylpiperazin-1-yl)phenyl]-6-methyl-2-(pyrazol-1-ylmethyl)-1H-pyrrolo[3,2-c]pyridine]
7 | 96% | 64% | Cc1cc2[nH]c(CN3CCC4(CC3)CC(O)C4)cc2c(-c2ccc(N3CCN(C(C)C)CC3)cc2)n1 [Example A29, 7-[[4-[4-(4-isopropylpiperazin-1-yl)phenyl]-6-methyl-1H-pyrrolo[3,2-c]pyridin-2-yl]methyl]-7-azaspiro[3.5] nonan-2-ol]
8 | 100% | 100% | Cc1cc2[nH]c(CN3CCC4(CC3)CC(C)C4)cc2c(-c2ccc(N3CCN(C(C)C)CC3)cc2)n1 [Example A30, 4-[4-(4-isopropylpiperazin-1-yl)phenyl]-6-methyl-2-[(2-methyl-7-azaspiro[3.5]nonan-7-yl)methyl]-1H-pyrrolo[3,2-c]pyridine]
9 |  | 85% | CC(C)N1CCN(c2ccc(-c3nc(C4CC4)cc4[nH]c(CN5CCOCC5)cc34)cc2)CC1 [Example A33, 4-[[6-cyclopropyl-4-[4-(4-isopropylpiperazin-1-yl)phenyl]-1H-pyrrolo[3,2-c]pyridin-2-yl]methyl] morpholine]
10 |  | 93% | CN1CCN(c2ccc(-c3nc(C4CC4)cc4[nH]c(CN5CCOCC5)cc34)cc2)CC1 [Example A34, 4-[[6-cyclopropyl-4-[4-(4-methylpiperazin-1-yl)phenyl]-1H-pyrrolo[3,2-c]pyridin-2-yl]methyl] morpholine]
11 | 100% | 90% | Cc1cc2c(cc(CN3CCOCC3)n2C)c(-c2ccc(N3CCN(C(C)C)CC3)cc2)n1 [Example A35, 4-[[4-[4-(4-isopropylpiperazin-1-yl]phenyl]-1,6-dimethyl-pyrrolo[3,2-c]pyridin-2-yl]methyl] morpholine]
12 |  | 100% | Cc1nc(-c2ccc(N3CCN(C(C)C)CC3)cc2)c2cc(CN3CCOCC3)[nH]c2c1C [Example A36, 4-[[4-[4-(4-isopropylpiperazin-1-yl)phenyl]-6,7-dimethyl-1H-pyrrolo[3,2-c]pyridin-2-yl]methyl] morpholine]

Second part, the compound before the results:

Row | SMILES | inhibition at 1 µM [1] | inhibition at 1 µM [2]
13 | CC(C)N1CCN(c2ccc(-c3nccc4[nH]c(CN5CCOCC5)cc34)cc2)CC1 [Example A1, 4-[[4-[4-(4-isopropylpiperazin-1-yl)phenyl]-1H-pyrrolo[3,2-c]pyridin-2-yl]methyl]morpholine] | 100% | 94%
14 | CN1CCN(c2ccc(-c3nccc4[nH]c(CN5CCOCC5)cc34)cc2)CC1 [Example A2, 4-[[4-[4-(4-methylpiperazin-1-yl)phenyl]-1H-pyrrolo[3,2-c]pyridin-2-yl]methyl] morpholine] | 100% | 94%
15 | CCN1CCN(c2ccc(-c3nccc4[nH]c(CN5CCOCC5)cc34)cc2)CC1 [Example A3, 4-[[4-[4-(4-ethylpiperazin-1-yl)phenyl]-1H-pyrrolo[3,2-c]pyridin-2-yl]methyl] morpholine] | 100% | 85%
16 | Cc1cc2[nH]c(CN3CCOCC3)cc2c(-c2ccc(N3CCN(C(C)C)CC3)cc2)n1 [Example A4, 4-[[4-[4-[4-isopropylpiperazin-1-yl)phenyl]-6-methyl-1H-pyrrolo[3,2-c]pyridin-2-yl]methyl] morpholine] | 100% | 100%
17 | CCN1CCN(c2ccc(-c3nc(C)cc4[nH]c(CN5CCOCC5)cc34)cc2)CC1 [Example A5, 4-[[4-[4-(4-ethylpiperazin-1-yl)phenyl]-6-methyl-1H-pyrrolo[3,2-c]pyridin-2-yl]methyl] morpholine] | 100% | 91%
18 | CC(C)N1CCN(c2ccc(-c3nccc4c3cc(CN3CCOCC3)n4C)cc2)CC1 [Example A8, 4-[[4-[4-(4-isopropylpiperazin-1-yl)phenyl]-1-methyl-pyrrolo[3,2-c]pyridin-2-yl]methyl] morpholine] |  | 100%
19 | CN1CCN(c2ccc(-c3nccc4c3cc(CN3CCOCC3)n4C)cc2)CC1 [Example A9, 4-[[1-methyl-4-[4-(4-methylpiperazin-1-yl)phenyl]pyrrolo[3,2-c]pyridin-2-yl]methyl] morpholine] |  | 94%
20 | CC(C)N1CCN(c2ccc(-c3nccc4[nH]c(CN5CCC(O)CC5)cc34)cc2)CC1 [Example A12, 1-[[4-[4-(4-isopropylpiperazin-1-yl)phenyl]-1H-pyrrolo[3,2-c]pyridin-2-yl]methyl] piperidin-4-ol] | 95% | 52%
